Source: PubChem BioAssay AID330 (DTP/NCI, 2004)
“And” between values parts separate entries of the source, which are not always exact repeats. Equal entries are not always repeated. Inconclusive results and toxic doses are left out. How the source made its calls: active means survival T/C of 150% or more; inactive means T/C below 125% in these data. Peptide text beside a SMILES is read from it. * marks the point of attachment. Cbz = O=C(OCc1ccccc1)*

System: P388 leukemia ip, CD2F1 mice, survival T/C
Experiment: NCI In Vivo Anticancer Drug Screen. Data for tumor model P388 Leukemia (intraperitoneal) in CD2F1 (CDF1) mice
Settings: endpoint: median survival time, higher = longer survival
How it was run: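 Mice carrying the transplanted tumor received test compound or vehicle. Survival was recorded in each group, and the value is the treated-group measurement divided by that of the vehicle-treated control group.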

[1] = dose: 12.5 mg/kg/injection, schedule: Q01DX005 (ip), vehicle: Klucel (hydroxypropylcellulose) (HPC)
[2] = dose: 25.0 mg/kg/injection, schedule: Q01DX005 (ip), vehicle: Klucel (hydroxypropylcellulose) (HPC)
[3] = dose: 50.0 mg/kg/injection, schedule: Q01DX005 (ip), vehicle: Klucel (hydroxypropylcellulose) (HPC)
[4] = dose: 100.0 mg/kg/injection, schedule: Q01DX005 (ip), vehicle: Klucel (hydroxypropylcellulose) (HPC)
[5] = dose: 200.0 mg/kg/injection, schedule: Q01DX005 (ip), vehicle: Klucel (hydroxypropylcellulose) (HPC)
[6] = dose: 100.0 mg/kg/injection, schedule: Q04DX003 (ip), vehicle: Klucel (hydroxypropylcellulose) (HPC)
[7] = dose: 200.0 mg/kg/injection, schedule: Q04DX003 (ip), vehicle: Klucel (hydroxypropylcellulose) (HPC)
[8] = dose: 100.0 mg/kg/injection, schedule: Q01DX001 (ip), vehicle: saline with Tween-80
[9] = dose: 200.0 mg/kg/injection, schedule: Q01DX001 (ip), vehicle: saline with Tween-80
[10] = dose: 400.0 mg/kg/injection, schedule: Q01DX001 (ip), vehicle: saline with Tween-80
[11] = dose: 50.0 mg/kg/injection, schedule: Q01DX005 (ip), vehicle: saline with Tween-80
[12] = dose: 100.0 mg/kg/injection, schedule: Q01DX005 (ip), vehicle: saline with Tween-80
[13] = dose: 200.0 mg/kg/injection, schedule: Q01DX005 (ip), vehicle: saline with Tween-80
[14] = dose: 50.0 mg/kg/injection, schedule: Q01DX009 (ip), vehicle: saline
[15] = dose: 100.0 mg/kg/injection, schedule: Q01DX009 (ip), vehicle: saline
[16] = dose: 200.0 mg/kg/injection, schedule: Q01DX009 (ip), vehicle: saline
[17] = dose: 12.5 mg/kg/injection, schedule: Q01DX009 (ip), vehicle: Klucel (hydroxypropylcellulose) (HPC)
[18] = dose: 25.0 mg/kg/injection, schedule: Q01DX009 (ip), vehicle: Klucel (hydroxypropylcellulose) (HPC)

Measured: T/C

CCCCCNc1ncnc2c(C)[nH]nc12
inactive: [1] 105 % of control | [2] 98 % of control | [3] 91 % of control | [4] 90 % of control | [5] 90 % of control

COC(=O)C1=C/CCCN/C=C\1C(=O)OC
inactive: [6] 97 % of control | [7] 97 % of control | dose: 400.0 mg/kg/injection, schedule: Q04DX003 (ip), vehicle: Klucel (hydroxypropylcellulose) (HPC) 98 % of control

O=C1C2C3C=CC(C2C(=O)N1c1ccccc1)C1C2C(=O)N(c4ccccc4)C(=O)C2C31 (centres undefined)
inactive: [8] 88 % of control | [9] 89 % of control | [10] 93 % of control

O=C1CCN(C(=O)C2=CC(=O)OC2)C1
inactive: [1] 100 % of control | [2] 93 % of control | [3] 100 % of control

Cc1nc2c(I)cccc2c(=O)n1CC(=O)NNC(N)=S
inactive: dose: 100.0 mg/kg/injection, schedule: Q04DX003 (ip), vehicle: saline with Tween-80 101 % of control | dose: 200.0 mg/kg/injection, schedule: Q04DX003 (ip), vehicle: saline with Tween-80 97 % of control | dose: 400.0 mg/kg/injection, schedule: Q04DX003 (ip), vehicle: saline with Tween-80 100 % of control

CCN(CC)CCCC(C)N1CC2CCCCC2C1 (centres undefined)
inactive: [11] 106 % of control | [12] 108 % of control | [13] 107 % of control

CC(Cl)C(=O)N(C)c1ccccc1 (centres undefined)
inactive: [6] 96 % of control | [7] 92 % of control

CC(C)(C)OC(=O)NC(Cc1c[nH]c2ccccc12)C(=O)O (centres undefined)
inactive: [3] 102 % of control | [4] 101 % of control | [5] 101 % of control

CC1C(=O)C(C)C(c2ccc(Cl)cc2)OC1c1ccc(Cl)cc1 (centres undefined)
inactive: [14] 112 % of control | [15] 103 % of control | [16] 114 % of control

CCCCN(CCCC)CCNc1ccc(C)c2sc3ccc(Cl)cc3c(=O)c12
inactive: dose: 12.5 mg/kg/injection, schedule: Q01DX005 (ip), vehicle: saline with Tween-80 88 % of control | dose: 25.0 mg/kg/injection, schedule: Q01DX005 (ip), vehicle: saline with Tween-80 88 % of control | [11] 89 % of control

CC(C)N=C(N)/N=C(\N)Nc1ccc2ccc3ccccc3c2c1
inactive: dose: 6.25 mg/kg/injection, schedule: Q01DX009 (ip), vehicle: Klucel (hydroxypropylcellulose) (HPC) 105 % of control | [17] 113 % of control | [18] 103 % of control

CCO/C(CC#N)=C(/C#N)C(=O)Nc1ccc(OC)cc1
inactive: dose: 60.0 mg/kg/injection, schedule: Q01DX005 (ip), vehicle: saline with Tween-80 95 % of control | dose: 120.0 mg/kg/injection, schedule: Q01DX005 (ip), vehicle: saline with Tween-80 93 % of control | dose: 240.0 mg/kg/injection, schedule: Q01DX005 (ip), vehicle: saline with Tween-80 89 % of control

NC1CCCC1C(=O)O (centres undefined)
inactive: [14] 96 % of control | [15] 100 % of control | [16] 102 % of control

COc1ccc2c(c1)CCC1C2CCC2(C)/C(=N/O)C3OC3C12 (centres undefined)
inactive: dose: 12.5 mg/kg/injection, schedule: Q01DX009 (ip), vehicle: saline with Tween-80 94 % of control and 95 % of control | dose: 25.0 mg/kg/injection, schedule: Q01DX009 (ip), vehicle: saline with Tween-80 110 % of control and 94 % of control | dose: 50.0 mg/kg/injection, schedule: Q01DX009 (ip), vehicle: saline with Tween-80 101 % of control and 94 % of control | dose: 100.0 mg/kg/injection, schedule: Q01DX009 (ip), vehicle: saline with Tween-80 101 % of control and 94 % of control

Cn1c2nc3ccccc3c-2nc2ccccc21
inactive: dose: 1.56 mg/kg/injection, schedule: Q01DX009 (ip), vehicle: water 100 % of control | dose: 3.13 mg/kg/injection, schedule: Q01DX009 (ip), vehicle: water 92 % of control | dose: 6.25 mg/kg/injection, schedule: Q01DX009 (ip), vehicle: water 88 % of control | [17] 92 % of control | [18] 99 % of control | dose: 50.0 mg/kg/injection, schedule: Q01DX009 (ip), vehicle: Klucel (hydroxypropylcellulose) (HPC) 109 % of control | dose: 100.0 mg/kg/injection, schedule: Q01DX009 (ip), vehicle: Klucel (hydroxypropylcellulose) (HPC) 106 % of control | dose: 200.0 mg/kg/injection, schedule: Q01DX009 (ip), vehicle: Klucel (hydroxypropylcellulose) (HPC) 107 % of control

O=C(NC(CO)C(=O)NC(Cc1ccc(O)cc1)C(=O)O)OCc1ccccc1 (stereo not drawn) (Cbz-Ser-Tyr-OH; configuration not given here)
inactive: [3] 98 % of control | [4] 100 % of control | [5] 101 % of control

O=S(=O)(CS(=O)(=O)c1ccc(Cl)c(Cl)c1)c1ccc(Cl)c(Cl)c1
inactive: dose: 60.0 mg/kg/injection, schedule: Q01DX005 (ip), vehicle: Klucel + Tween-80 94 % of control | dose: 120.0 mg/kg/injection, schedule: Q01DX005 (ip), vehicle: Klucel + Tween-80 102 % of control

Nc1ncnc2c1ncn2C1OC(COC(c2ccccc2)(c2ccccc2)c2ccccc2)C(O)C1O (centres undefined)
inactive: [11] 100 % of control | [12] 95 % of control | [13] 90 % of control

CC12CCC(=O)C1C=CC2=O (centres undefined)
inactive: dose: 100.0 mg/kg/injection, schedule: Q04DX003 (ip), vehicle: saline + Tween-80 + alcohol 100 % of control | dose: 200.0 mg/kg/injection, schedule: Q04DX003 (ip), vehicle: saline + Tween-80 + alcohol 112 % of control

N=C(N)SCC(=O)Nc1nc(NC(=O)CSC(=N)N)nc(NC(=O)CSC(=N)N)n1
inactive: dose: 100.0 mg/kg/injection, schedule: Q04DX002 (ip), vehicle: saline 101 % of control | dose: 200.0 mg/kg/injection, schedule: Q04DX002 (ip), vehicle: saline 99 % of control | dose: 400.0 mg/kg/injection, schedule: Q04DX002 (ip), vehicle: saline 100 % of control

CC(=O)N=c1ccc2nc3c(cc(N)c4ccccc43)oc-2c1
inactive: dose: 10.0 mg/kg/injection, schedule: Q01DX005 (ip), vehicle: Klucel (hydroxypropylcellulose) (HPC) 98 % of control | dose: 20.0 mg/kg/injection, schedule: Q01DX005 (ip), vehicle: Klucel (hydroxypropylcellulose) (HPC) 100 % of control | dose: 40.0 mg/kg/injection, schedule: Q01DX005 (ip), vehicle: Klucel (hydroxypropylcellulose) (HPC) 98 % of control

CNCC1CCCO1 (centres undefined)
inactive: dose: 25.0 mg/kg/injection, schedule: Q04DX003 (ip), vehicle: saline 100 % of control | dose: 50.0 mg/kg/injection, schedule: Q04DX003 (ip), vehicle: saline 100 % of control | dose: 100.0 mg/kg/injection, schedule: Q04DX003 (ip), vehicle: saline 100 % of control | dose: 200.0 mg/kg/injection, schedule: Q04DX003 (ip), vehicle: saline 99 % of control

OC(c1cc(-c2ccccc2)nc2ccc(Cl)cc12)C1CCCCN1 (centres undefined)
inactive: [11] 97 % of control | [12] 90 % of control | [13] 99 % of control

Cc1c(Br)sc2ccc3ccccc3c12
inactive: [8] 103 % of control | [9] 106 % of control | [10] 103 % of control

Cc1c(C#N)c2nc(N)c3ccccc3n2c1C
inactive: [3] 101 % of control | [4] 106 % of control | [5] 106 % of control

C=C1SC(=Nc2cccc(OC)c2)N(c2nc(Cl)nc(Cl)n2)C1(C)C
inactive: [14] 99 % of control | [15] 102 % of control | [16] 98 % of control
